Values of other authors, collected in patent US20260248820A1, “USES OF HYDROGENATED CANNABIDIOL (H4CBD) AND ADVANCED METABOLIC SYNDROME” (The Regents of the University of California, priority 2022, published 2026).

Key:
[1] = clinical; cited from earlier work
[2] = rats without underlying metabolic dysfunction; cited from earlier work
rodents = conditions: cited from earlier work
[3] = system: endocannabinoid receptors; conditions: cited from earlier work
[4] = system: diet-induced obese (DIO) and non-obese diabetic mice; conditions: cited from earlier work
PTZ-induced seizure = conditions: rats; cited from earlier work

SMILES | Effects of high doses administered clinically [1] | Body mass gain [2] | Documented toxicity (rodents) [mg/kg] | Affinity for the endocannabinoid receptors responsible for cannabis intoxication [3] | Incidence of diabetes [4] | Reduction of PTZ-induced seizure frequency and severity (PTZ-induced seizure)
C=C(C)[C@@H]1CCC(C)=C[C@H]1c1c(O)cc(CCCCC)cc1O [CBD, Cannabidiol] | anorexic and diarrheal effects | inhibit body mass gain | > 600 | little affinity | reduced the incidence of diabetes | 
CCCCCc1cc(O)c([C@@H]2C=C(C)CC[C@H]2C(C)C)c(O)c1 [H2CBD, dihydrocannabidiol] |  |  |  |  |  | equal effectiveness to that of CBD
